Test results taken from ChEMBL document CHEMBL1201862, “PubChem BioAssay data set” (2004).
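1) Cells in 96-well plates. 2) Compound, 48 h, 5 concentrations. 3) Linear interpolation between surrounding doses. 4) Unreached endpoint = highest concentration. Here, GI50 denotes the concentration required for 50% inhibition of growth.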 The source made the active and inactive calls. Rule as the data show it: active = GI50 up to about 1.1 µM and inactive = higher.

Columns and labels:
Experiment in all cases: inhibition of tumour cell growth, NCI panel, 48 h
DLD-1 = tested on: DLD-1
DMS-114 = tested on: DMS-114
DMS-273 = tested on: DMS-273
HOP-18 = tested on: HOP-18
KM-20L2 = tested on: KM-20L2
LXFL 529 = tested on: LXFL 529
RXF 631 = tested on: RXF 631
SNB-78 = tested on: SNB-78
XF498 = tested on: XF498

Measured: GI50

O=C(NCCCCCCNC(=O)c1cccc2ccccc12)c1cccc2ccccc12
inactive: DLD-1 59.7 µM | DMS-114 > 100 µM | DMS-273 2.02 µM | HOP-18 24.6 µM | KM-20L2 > 100 µM | LXFL 529 57.1 µM | RXF 631 47.2 µM | SNB-78 5.42 µM | XF498 3.2 µM

Cc1ccccc1NC(=O)CC(=O)n1nc(-c2ccccc2)c(/N=N/c2ccc([N+](=O)[O-])cc2)c1-c1ccccc1
inactive: DLD-1 18.7 µM | DMS-114 10.6 µM | DMS-273 21 µM | HOP-18 16.5 µM | KM-20L2 16.7 µM | LXFL 529 24.9 µM | RXF 631 12.4 µM | SNB-78 26.9 µM | XF498 21.8 µM

CCc1ccccc1NC(=O)C(=O)CC(=O)c1sc(Nc2ccccc2)nc1C
inactive: DLD-1 > 100 µM | DMS-114 > 100 µM | DMS-273 > 100 µM | HOP-18 > 100 µM | KM-20L2 > 100 µM | LXFL 529 > 100 µM | RXF 631 > 100 µM | SNB-78 > 100 µM | XF498 > 100 µM

Clc1ccccc1C1=NN(c2ccccc2)C2c3ccccc3OCC12 (stereo unspecified)
inactive: DLD-1 > 100 µM | DMS-114 > 100 µM | DMS-273 83.8 µM | HOP-18 27.8 µM | KM-20L2 73.3 µM | LXFL 529 66.7 µM | RXF 631 > 100 µM | SNB-78 > 100 µM | XF498 > 100 µM
